From ChEMBL document CHEMBL1828591, “Synthesis of antimitotic thioglycosides: in vitro and in vivo evaluation of their anticancer activity” (J Med Chem, 2011)
Calls of active or inactive are those of the source. The calls are words filed in the database; no cut-off is given here.

Legend:
A549 [1] = assay: Antiproliferative activity against human A549 cells after 48 hrs by MTT assay; type: functional; details: A549, 48 h, read-out: ID50 (the source's name)
C6 [2] = assay: Antiproliferative activity against rat C6 cells after 48 hrs by MTT assay; type: functional; details: C6, 48 h, read-out: ID50 (the source's name)
A549 [3] = assay: Reduction in glucosylceramide content of human A549 cell extract at 15 uM after 48 hrs by UPLC-MS analysis; type: functional, cell-based
A549 [4] = assay: Elevation in lactosylceramide content of human A549 cell extract at 15 uM after 48 hrs by UPLC-MS analysis; type: functional
A549 [5] = assay: Reduction in ganglioside GM2 content of human A549 cell extract at 15 uM after 48 hrs by UPLC-MS analysis; type: functional, cell-based
A549 [6] = assay: Reduction in ganglioside GM3 content of human A549 cell extract at 15 uM after 48 hrs by UPLC-MS analysis; type: functional, cell-based
A549 [7] = assay: Drug uptake in 10^6 human A549 cells at 15 uM after 48 hrs by UPLC-MS analysis; type: ADME, cell-based; details: a549, 48 h
C6 [8] = assay: Antitumor activity against rat C6 cells xenografted in nude mouse assessed as reduction in tumor size at 1 mg/kg, intratumorally administered for 14 days; type: functional, organism-based; design: dose 1 mg/kg
C6 [9] = assay: Antitumor activity against rat C6 cells xenografted in nude mouse assessed as reduction in tumor size at 10 mg/kg, intratumorally administered for 14 days relative to control; type: functional, organism-based; design: dose 10 mg/kg
C6 [10] = assay: Antitumor activity against rat C6 cells xenografted in nude mouse assessed as reduction of creatine levels in tumor at 10 mg/kg, intratumorally administered for 14 days by 1H MAS NMR spectroscopy relative to control; type: functional, organism-based; design: dose 10 mg/kg
C6 [11] = assay: Antitumor activity against rat C6 cells xenografted in nude mouse assessed as increase in choline-containing metabolite levels in tumor at 10 mg/kg, intratumorally administered for 14 days by 1H MAS NMR spectroscopy relative to control; type: functional, organism-based; design: dose 10 mg/kg
C6 [12] = assay: Antitumor activity against rat C6 cells xenografted in nude mouse assessed as increase in lactate levels in tumor at 10 mg/kg, intratumorally administered for 14 days by 1H MAS NMR spectroscopy relative to control; type: functional, organism-based; design: dose 10 mg/kg
C6 [13] = assay: Antitumor activity against rat C6 cells xenografted in nude mouse assessed as increase in acetate levels in tumor at 10 mg/kg, intratumorally administered for 14 days by 1H MAS NMR spectroscopy relative to control; type: functional, organism-based; design: dose 10 mg/kg
[14] = Drug uptake in cyst of nude mouse xenografted with rat C6 cells assessed as formation of olelyl alcohol at 10 mg/kg, intratumorally administered for 8 days by 1H MAS NMR spectroscopy; type: ADME, organism-based; design: dose 10 mg/kg; details: in vivo, other, 192 h
C6 [15] = assay: Antitumor activity against rat C6 cells xenografted in nude mouse assessed as delay in tumor growth at 1 to 10 mg/kg, intratumorally administered for 8 days measured after 8 days relative to control; type: functional, organism-based
C6 [16] = assay: Antitumor activity against rat C6 cells xenografted in nude mouse assessed as reduction in tumor volume at 1 to 10 mg/kg, intratumorally administered for 8 days measured after 8 days relative to control; type: functional, organism-based
A549 [17] = assay: Elevation in glucosylceramide content of human A549 cell extract at 15 uM after 48 hrs by UPLC-MS analysis; type: functional, cell-based
[18] = Stability of the compound in presence of Jack bean N-acetyl-D-glucosaminidase at 1 mM after 48 hrs by HPLC analysis; type: ADME; details: 1000 µM
[19] = test system: N-acetyl-D-glucosaminidase; assay: Stability of the compound in presence of Jack bean N-acetyl-D-glucosaminidase assessed as compound hydrolyzed to N-acetyl-D-glucosamine at 1 mM after 48 hrs by HPLC analysis; type: ADME; details: Jack bean N-acetyl-D-glucosaminidase (isolated enzyme), read-out: Activity

| IC50 (A549 [1]) [µM] | Drug uptake (A549 [7]) [pmol] | Drug uptake [14] | Stability [18] | metabolised at 48 h, 1000 µM [19] [%] | Compound | IC50 (C6 [2]) [µM] | Activity (A549 [3]) | Activity (A549 [4]) [%] | Activity (A549 [5]) | Activity (A549 [6]) | Activity (C6 [8]) | Activity (C6 [9]) | Activity (C6 [10]) | Activity (C6 [11]) | Activity (C6 [12]) | Activity (C6 [13]) | Activity (C6 [15]) | Activity (C6 [16]) | Activity (A549 [17]) |
| --- | --- | --- | --- | --- | --- | --- | --- | --- | --- | --- | --- | --- | --- | --- | --- | --- | --- | --- | --- |
| 35 | 3675 | – | – | – | CCCCCCCC/C=C\CCCCCCCCS[C@H]1O[C@H](CO)[C@@H](O)[C@H](O)[C@H]1NC(C)=O | 14 | inactive | 40 | Active | Active | inactive | Active | Active | Active | Active | Active | – | – | – |
| 25 | 2916 | Active | – | – | CCCCCCCC/C=C\CCCCCCCCO[C@H]1O[C@H](CO)[C@@H](O)[C@H](O)[C@H]1NC(C)=O | 16 | inactive | 40 | Active | Active | inactive | – | – | – | – | – | inactive | inactive | – |
| 30 | 3333 | – | Stable | – | CCCCCCCC/C=C\CCCCCCCCS[C@@H]1O[C@H](CO)[C@@H](O)[C@H](O)[C@H]1NC(C)=O | 26 | – | 40 | Active | Active | – | – | – | – | – | – | – | – | inactive |
| 50 | 952 | – | – | 32 | CCCCCCCC/C=C\CCCCCCCCO[C@@H]1O[C@H](CO)[C@@H](O)[C@H](O)[C@H]1NC(C)=O | 38 | – | 40 | Active | Active | – | – | – | – | – | – | – | – | inactive |
